Assay results taken from patent US8691801B2, “Use of manzamine compounds in anti-cancer therapeutic regimens” (Florida Atlantic University Board of Trustees, priority 2006, dated 2014).
Where two headings read alike, the source gives them in different places.

Legend:
[1] = tested on: AsPC-1 cells; assay type: cell-based
Description: In Vitro Cell Invasion Assay. The invasiveness of AsPC-1 cells alone, treated with our test compounds or treated with U0126 as a positive control will be evaluated in 24-well transwell chambers, as described by Fu et al. “Effects of raf kinase inhibitor protein expression on suppression of prostate cancer metastasis”. […] Briefly, the upper and lower culture compartments of each well are separated by polycarbonate membranes (8-μm pore size). To determine baseline migration, 2.5×10^4 cells in 0.5 mL of complete medium containing 5% FBS are placed into the upper compartment of uncoated wells (BD Discovery Labware, San Diego, Calif.), and 0.75 mL of complete medium containing 10% FBS are placed into the lower compartment. In parallel, to assess the ability of the same cells to penetrate a collagen matrix, the experiment is repeated using upper compartments coated with 100 μg/cm^2 of collagen matrix (BD Discovery Labware, San Diego, Calif.). The transwell chambers are incubated for 24 hours at 37 ° C. in 95% air and 5% CO2. Cell penetration through the membrane is detected by staining the cells on the porous membrane with a Diff-Quik stain kit' observing under the microscopic and capturing images with a digital camera.

[2] = tested on: AsPC-1 cells
Description: (§1) TRAIL induced apoptosis. 12,000 AsPC-1 cells were plated on a 96-well tissue culture plate at a volume of 200 μl/well, allowing for twelve replicate wells per treatment. Cells were allowed to adhere for 24 hours. At the end of this incubation, 100 μl of medium were removed from each test well and 100 μl of medium containing treatment were added. Treatment consisted of media alone, media with methanol, 10 μM Manzamine A or 20 μg/m1 U0126. The cells were then incubated for 48 hours at 37° C. and 5% CO2. After this incubation, half of the wells of each treatment were incubated with 100 ng/ml Super Killer TRAIL (Alexis, San Diego, Calif.) for 18 hours at 37° C. and 5% CO2. At the end of this incubation, 75 μl of a 5 mg/ml MTT solution were added to each well. The cells were then incubated for 3 hours at 37° C. The plates were centrifuged for 10 minutes at 800 rpm. The supernatant was removed and 200 μl acidified isopropyl alcohol (1:500 solution of hydrochloric acid to isopropanol) were added to each well. The plates were shaken for 15 minutes. The absorbencies of these solutions were measured at 570 nm with a plate reader (NOVOstar, BMG Labtech Inc., Durham, N.C.). The resulting absorbencies were plotted using Microsoft Excel. […]

[3] = tested on: AsPC-1 cells; experiment: Morphological changes (cell dissociation) induced in AsPC-1 cells; assay type: cell-based
Description: Cell Culture Conditions for the AsPC-1 pancreatic adenocarcinoma cell line. AsPC-1, a pancreatic adenocarcinoma cell line, was obtained from ATCC, grown, aliquotted and frozen stocks were maintained in liquid nitrogen. Aliquots of the stock cells were thawed and grown in RPMI-1640 supplemented with 10% Fetal Bovine Serum, 0.11 mg/ml Sodium Pyruvate, 4.5 g/L D-glucose, 18 mM HEPES Buffer, 100 U/ml penicillin G sodium, 100 μg/ml streptomycin sulfate, 0.25 μg/ml amphotericin B, 2 mM L-glutamine and 50 μg/ml gentamicin (Complete RPMI). Cells were maintained in a humidified incubator at 37° C. and 5% CO2.
An observation was made that inhibiting the constitutive activation of MEK abrogates cell dissociation (Tan, X. et al., 2004 “Involvement of the mitogen-activated protein kinase kinase 2 in the induction of cell dissociation in pancreatic cancer” Int J Oncol 24(1):65-73), a precursor step in metastasis.

[4] = tested on: AsPC-1 cells; experiment: Cell viability assay (MTT); assay type: cell-based; conditions: pancreatic cancer cells
Description: Cell viability assays. A 3-[4,5-Dimethyl-2-thiazolyl]-2,5-diphenyl-2H-tetrazolium bromide (MTT) based assay was used to determine cell viability. […] Cells were allowed to adhere for 24 hours. […] Treatment consisted of 5 μM or 50 μM of Manzamine A, media alone, media with methanol, or 20 μg/ml U0126. […] After this incubation, 75 μl 5 mg/ml MTT were added to each well. […] The plates were shaken for 15 minutes. […] The resulting absorbencies were plotted using Microsoft Excel.

[5] = tested on: AsPC-1 cells; experiment: TRAIL induced apoptosis (MTT readout); conditions: 10 μM manzamine A, 48 hours, without TRAIL
Description: as §1

Compound	prevention of cell migration [1]	cytotoxicity of treatment alone [2]	abrogation of cell dissociation ([3]; AsPC-1 cells treated 48 hours with 1.25, 2.5, 5, 10 μM Manzamine A, microscopy)	abrogation of cell dissociation, dose dependence ([3]; AsPC-1 cells, 48 hours, 5 and 10 μM dose compared with 1.25 and 2.5 μM)	dose needed for similar effects relative to U0126 ([3]; effects on cell dissociation, migration and TRAIL resistance, manzamine A vs U0126)	prevention of cell migration ([1]; AsPC-1 cells treated 48 hours, 5 and 10 μM Manzamine A, transwell, collagen matrix)	cytotoxicity at small doses [4]	cytotoxicity of treatment alone [5]
N#CC(=C(/N)Sc1ccccc1N)/C(C#N)=C(\N)Sc1ccccc1N [U0126, reference compound]	prevented cell migration	induced some cytotoxicity						
O[C@]12C=C(c3nccc4c3[nH]c3ccccc34)[C@@H]3CCN(CCCC/C=C\CC1)C[C@@]31CC3/C=C\CCCCN3[C@H]12 (some centres unmarked) [Manzamine A, manzamine A]			caused abrogation of cell dissociation similar to that caused by pMEK inhibitors	stronger at the 5 and 10 μM dose	a fifth of the dose needed for U0126	prevented cell migration similar to that caused by the pMEK inhibitor U0126	little cytotoxicity	induced some cytotoxicity
